The target of data set [1] is T1, TrBgl2 (Trichoderma reesei, UniProt O93785). Put plainly: MUG cleavage fluorescent kinetic assay (AC50 / Amax / IC50). Type of data set: biochemical. As to the method:
A fluorescent kinetic assay was performed for library screening of TrBgl2 using 500 µM 4-methylumbelliferyl-β-D-glucopyranoside (MUG) in a total volume of 150 µL per well. Compounds dissolved in DMSO were added to each well to yield a final concentration from 1 to 2 mM. The reactions were performed in 160 mM phosphate–citrate buffer in pH 6.0, initiated by adding 20 µL of the enzyme to give a final concentration of 100 nM and were assayed at 40°C. The fluorescent 4-methylumbelliferyl release was recorded continuously at 355 nm excitation and 460 nm emission for 20 s using a BMG Labtech POLARstar OPTIMA plate reader. Control experiments were performed to evaluate the possibility of interference from the intrinsic fluorescence of compounds in the library by repeating the assay in the absence of the enzyme.
(§1) Assays were carried out in a 96 well plate (Black Nunc F96 MicroWell Plates) at 40 and 45°C for TrBgl2 and CcBglA, respectively, in 160 mM phosphate–citrate buffer in pH 6.0 and 2.5% DMSO. Reactions were initiated by the addition of 20 µL of protein to a final concentration of 100 nM, followed by 5 s of shaking. The fluorescent 4-methylumbelliferyl release was recorded continuously at 355 nm excitation and 460 nm emission for 20 s using a BMG Labtech POLARstar OPTIMA plate reader. Rates were calculated using GraphPad Prism 5.0 as the slope of the curve of the collected data. Corrections were made to the detected gradients to adjust for the inner filter effect of MUG and convert the gradients into units of µmol min^−1 according to a standard curve for MUG. The initial slopes were fitted to sigmoidal dose-response curves using GraphPad Prism 5.0 and the AC50 values extracted. Inhibition of TrBgl2 by isofagomine (IC50) was determined in similar manner to the AC50 values.

The target of data set [2] is T1, TrBgl2. Put plainly: STD NMR ligand-observed binding. The settings on record: compound 500 µM, TrBgl2 20 µM; for binding to TrBgl2 by STD NMR: absence of isofagomine; for binding to TrBgl2 by STD NMR in presence of isofagomine: isofagomine 40 µM. The procedure:
The samples contained 20 µM unlabelled TrBgl2, fragments at a concentration of 500 µM per compound and 100 µM sodium trimethylsilylpropanesulfonate (DSS) in 50 mM phosphate buffer containing 25 mM NaCl and 5% D2O at pH 6.0. The experiments were recorded by using a Bruker standard pulse sequence (stddiffesgp.3 [19]). The on-resonance frequency was set to 0.25 ppm and off-resonance irradiation was applied at 40 ppm. STD NMR spectra were collected with a total of 16 scans (NS), 5 s delay between the scans (d1), a saturation time of 4 s (d20) and 1.5 s acquisition time (AQ).

In data set [3] the target is T1, TrBgl2. Description: Michaelis-Menten and covariation kinetics with MUG. Type of data set: biochemical. As to the method:
Apparent KM and kcat values were calculated from a Michaelis–Menten curve fit to 9-point substrate titrations at a constant concentration of compounds. The covariation experiments used the same range of substrate concentrations across an activator and inhibitor concentration range. The data obtained from these experiments was fit to the nonessential activator and mixed-model inhibition equation, respectively.

A further data set relates to E367Q TrBgl2. Put plainly: Thermal shift assay (TSA). Type of data set: binding, Trichoderma reesei. As to the method: Thermal shift screens were performed in 96-well polypropylene PCR plates (Agilent 401334) with a final volume 25 µL/well. […] Melting data were collected using an Agilent Stratagene Mx3005P rtPCR machine ramping from 25 to 95°C at 30 s per degree. Data were analysed with a combination of the Agilent MxPro software, MTS [16], JTSA (http://paulsbond.co.uk/jtsa) and the DSF analysis spreadsheet in Excel.

Data set [4] deals with T1, TrBgl2. Description: Protein-observed NMR chemical shift perturbation (1H-15N TROSY). It is filed as binding. Particulars: compound 8 mM (8 also 16 mM), 15N TrBgl2 120 µM. As to the method:
For backbone chemical shift perturbations (CSPs), each sample was prepared with 120 µM ^15N isotope-labelled TrBgl2 or E367Q TrBgl2, 8 mM or 16 mM of compound 8 or 10, 5 mM of MUG substrate and 100 µM DSS in 50 mM TRIS buffer containing 100 mM NaCl and 10% D2O at pH 8.0. The final DMSO concentration was usually not above 3.8%(v/v). ^1H-^15N TROSY spectra of the enzyme with DMSO in the buffer were collected as controls. ^1H-^15N TROSY spectra were collected by using a Bruker standard pulse sequence (trosyetf3gpsi) with 128 scans (NS), 1.5 s delay between the scans (d1), 35 ppm spectra width (SW), 256-time domain data size (TD) and 117 ppm irradiation carrier frequency offset (O1P).
For IVL methyl group CSPs, each sample was prepared with 250 µM of ^15N, ^13C, ^2H and IVL methyl group specifically labelled TrBgl2, 8 mM of compound 8, in 50 mM TRIS buffer containing 100 mM NaCl and 10% D2O at pH 8.0. The final DMSO concentration was usually not above 3.8% (v/v). ^1H-^13C HSQC spectra of the enzyme with DMSO in the buffer were collected as controls. ^1H-^13C HSQC spectra were recorded by using a Bruker standard pulse sequence (hsqcctetgpsp) with 8 scans (NS), 1.5 s delay between the scans (d1), 30 ppm spectra width (SW), 256-time domain data size (TD) and 15 ppm irradiation carrier frequency offset (O1P).

A short description of a further data set: Solubility of compound. It is filed as physicochemical.
The test system of the next data set is CcBglA. Description: MUG cleavage assay on CcBglA (selectivity). Particulars: MUG 500 µM, titration 63 µM to 8 mM. Type of data set: biochemical, Clostridium cellulovorans. The procedure:
as §1

Where [5] appears, read: pH 6, titration of compound from 30 µM to 3.8 mM, substrate conc. 500 µM, read-out: Amax.
The mark [6] stands for this setting: titration of compound from 30 µM to 3.8 mM, substrate conc. 500 µM.
Setting [7] is: pH 6, titration of compound from 63 µM to 8 mM, substrate conc. 500 µM, read-out: Amax.
Where [8] appears, read: titration of compound from 63 µM to 8 mM, substrate conc. 500 µM.
Setting [9] is: E367Q TrBgl2 in the presence of MUG (4 mM), compound 4 mM.
Setting [10] is: apo E367Q TrBgl2, compound 4 mM, without MUG.

Experimental findings from publication PMC7702302, “Fragment-derived modulators of an industrial β-glucosidase” (Biochemical Journal, 2020) are described below.

“And” between values parts separate entries of the source, which are not always exact repeats. Identical values can stand only once. Like-named read-outs stand apart in the source and are kept apart here.

T1 sequence (O93785 entry or part of it): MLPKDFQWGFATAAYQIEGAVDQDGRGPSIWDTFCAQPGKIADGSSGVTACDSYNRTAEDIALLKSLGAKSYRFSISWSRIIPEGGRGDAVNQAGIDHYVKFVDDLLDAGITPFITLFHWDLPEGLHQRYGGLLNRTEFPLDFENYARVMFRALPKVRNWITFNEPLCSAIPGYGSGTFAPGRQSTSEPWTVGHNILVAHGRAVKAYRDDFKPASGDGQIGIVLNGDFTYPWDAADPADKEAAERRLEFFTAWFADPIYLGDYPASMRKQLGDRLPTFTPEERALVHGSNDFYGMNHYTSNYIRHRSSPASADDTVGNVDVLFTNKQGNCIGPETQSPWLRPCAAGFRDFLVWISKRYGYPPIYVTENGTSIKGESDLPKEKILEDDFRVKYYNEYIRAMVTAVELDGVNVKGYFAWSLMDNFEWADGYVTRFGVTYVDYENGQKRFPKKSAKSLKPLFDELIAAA

One may read the AC50 as the midpoint of the concentration-response curve, whichever way the signal moves. Read a low AC50 as activity at low concentration. For `Cc1cccc(C)c1NC(=S)N1CCOCC1` [Compound 1], the AC50 at TrBgl2 [1] (MUG substrate 500 μM) was 1000 µM and ~1000 µM. In addition, at TrBgl2 [1] (MUG substrate 500 μM, read-out: Amax (maximal activation obtained)), the Emax is around 155%. For the same compound, on TrBgl2 [2], the “binding to TrBgl2 by STD NMR” value is listed as “showed evidence of binding” and the “binding to TrBgl2 by STD NMR in presence of isofagomine” value (“binding to TrBgl2 … of isofagomine” below) is given as “binding was also observed”. In addition, the “improvement in kcat/KM” value on TrBgl2 [3] (Michaelis-Menten analysis, MUG, in presence of 1 (3 mM) vs absence) was “approximately 2 fold”.
As to `S=C(Nc1ccccc1Cl)N1CCOCC1` [Compound 3], the Emax at TrBgl2 [1] (setting [5]) came to 155%. In addition, at TrBgl2 [1] (setting [6]), the AC50 is above 4000 µM.
As for `Cc1ccccc1NC(=S)N1CCOCC1` [Compound 4], at TrBgl2 [1] (setting [5]), the Emax turned out to be 139%. At TrBgl2 [1] (setting [6]), this compound displayed an AC50 of 1810 ± 96 µM.
In the case of `Cc1ccc(C)c(NC(=S)N2CCOCC2)c1` [Compound 5], the Emax at TrBgl2 [1] (setting [5]) came to 160%. The AC50 at TrBgl2 [1] (setting [6]) was above 4000 µM.
Consider `COc1ccccc1NC(=S)N1CCOCC1` [Compound 6], for which the Emax at TrBgl2 [1] (setting [7]) worked out at 143%. Also, the AC50 on TrBgl2 [1] (setting [8]) was above 4000 µM.
In the case of `Cc1cccc(C)c1NC(=S)N1CCCCC1CO` (centres unmarked) [Compound 7], at TrBgl2 [1] (setting [7]), the Emax amounted to 161%. The compound further gave a concentration at half-maximal activity (AC50) on TrBgl2 [1] (setting [8]) of 1530 ± 312 µM.
What is called solubility is the dissolved amount per volume that the medium holds. As to `CCN(CCO)C(=S)Nc1c(C)cccc1C` [Compound 8], in the data set on E367Q TrBgl2 (setting [9]), the “increase of Tm” value was around 1.2 °C. Further, the “decrease of Tm” value in the data set on E367Q TrBgl2 (setting [10]) was around 1 °C. In addition, the Emax at TrBgl2 [1] (setting [7]) was at most 188%. The same compound showed a half-maximal activity concentration (AC50) on TrBgl2 [1] (setting [8]) above 4000 µM. Also, at TrBgl2 [2], the “binding to TrBgl2 by STD NMR” value is “clear signal intensity” and the “binding to TrBgl2 … of isofagomine” value is given as “clear signal intensity”. On TrBgl2 [3] (covariation fit, MUG substrate), the “α modifier (nonessential activator model)” value was 0.64 and the “β modifier (nonessential activator model, modifies kcat)” value was 1.5. Also, the “enhancement of substrate affinity” value at TrBgl2 [3] (in the presence of activator) is listed as “approximately 1.5 fold”. The “amide chemical shift changes on addition of compound (1H-15N TROSY)” value at TrBgl2 [4] is “indicating a specific binding event”. Further, the solubility in “Solubility of compound” is at most 16 mM.
`Cc1cccc(C)c1NC(=S)NCCO` [Compound 9]: the Emax at TrBgl2 [1] (setting [5]) amounted to 128%. Also, at TrBgl2 [1] (setting [6]), the concentration at half-maximal activity (AC50) was above 4000 µM.
A word on the IC50: it is the point on the concentration scale where inhibition reaches its midpoint. A low value points to greater potency in that assay. By inhibition is commonly meant the drop in the measured response relative to a control, in per cent. On to `S=C(Nc1ccc2nccnc2c1)N1CCOCC1` [Compound 10], for which the “decrease of Tm” value in the data set with E367Q TrBgl2 (setting [9]) and in the data set on E367Q TrBgl2 (setting [10]) was around 4 °C in each case. Besides, the “inhibition of CcBglA” value in the data set on CcBglA is recorded as “inhibited both enzymes to a similar degree”. Further, inhibition against TrBgl2 [1] (setting [8]) was half-maximal at 312 ± 32 µM (IC50). Moreover, at TrBgl2 [1] (titration of compound from 63 µM to 8 mM, substrate conc. 500 µM, read-out: Maximum inhibition), the inhibition worked out at 96%. At TrBgl2 [2], the “binding to TrBgl2 by STD NMR” value was “clear signal intensity”. Besides, the “binding to TrBgl2 … of isofagomine” value at TrBgl2 [2] was “clear signal intensity”. In addition, the “α modifier (reversible mixed inhibition model)” value at TrBgl2 [3] (covariation fit, MUG substrate) amounted to 3.65. Also, on TrBgl2 [4], the “amide chemical shift changes on addition of compound (1H-15N TROSY)” value was “smaller but similar changes as seen for 8”.
For `OC[C@H]1CNC[C@@H](O)[C@@H]1O` [isofagomine, reference compound], on TrBgl2 [1] (inhibition of TrBgl2, MUG substrate), the IC50 is 0.53 ± 0.12 µM.
